Assay results taken from patent US20250011404A1, “TARGETING APOE ENHANCES T-CELL KILLING IN CANCER IMMUNOTHERAPY” (Children's National Medical Center, priority 2021, published 2025).

What was measured:
[1] = test system: splenocytes co-cultured with Myc-inhibited B16 tumor cells; assay: ProcartaPlex multiplex immunoassay of splenocyte/B16 co-cultures; assay type: cell-based, mouse
Method: To further investigate the influence of tumor secreted apoE on immune cell function, immunogenic B16 tumor cells (B16 cells treated with Myc inhibitors (0.25 μM BET+0.25 μM JQ1 for 4 days) were irradiated at 60 Gray and co-cultured with naïve C57/BL6 splenocytes in the presence of either apoE mimetic COG133 at 0.3, 3 and 9 μM or anti-APOE blocking antibody at 1, 10 and 30 μg/ml concentrations. Prior work has shown the immunogenic effect of treating cancer cells with Myc inhibitors and irradiation. IFNγ production was quantified by ELISA at 48 h. Splenocytes produced high levels of IFNγ when co-cultured with Myc-inhibited immunogenic B16 cells as shown in FIGS. 3A-3C. Exposure of these cells to apoE mimetic COG133 repressed IFNγ production (6-fold reduction) (FIG. 3A), while the presence of Anti-APOE antibody enhanced IFNγ production (3-fold increase) (FIG. 3B). We also tested IFNγ production from vaccinated splenocytes following co-culture with treated and untreated B16 cells in the presence of COG 133. To obtain vaccinated splenocytes, 10^4 WT B16 tumor cells and 100 μg/ml anti-CTLA4 antibody were administered to C57BL/6 mice on day 0, and splenocytes were collected at day 7 after tumor cell inoculation. Compared with naïve splenocytes, vaccinated splenocytes produced dramatically greater level of IFNγ, especially when they were co-cultured with Myc inhibited B16 tumor cells. […] In addition to IFNγ, we also quantified other cytokine/chemokines using ProcartaPlex multiplex immunoassay. […] Within these 14 cytokines, four of them including IFN[…], IL6, IL18 and RANTES (CCL5) were suppressed after exposure to apoE peptide mimetic COG133 in a dose dependent manner (FIG. 17).
Cell culture supernatant was collected after centrifuge at 1,200 rpm for 10 min at 4° C. The concentrations of the following immune molecules were determined using the mouse Cytokine & Chemokine 36-plex ProcartaPlex Panel, a magnetic bead-based multiplex immunoassay (Thermo Scientific) following our previous protocol(19). Briefly, cell culture supernatant samples were mixed with antibody-linked polystyrene beads on a 96-well plate and incubated at room temperature (RT) for 2 h on an orbital shaker at 500 rpm. After washing, plates were incubated with biotinylated detection antibody for 30 min at RT. Plates were then washed twice and then labeled beads were resuspended in streptavidin-PE. Each sample was measured in duplicate along with standards (8-point dilutions) and the buffer control. Plates were read using a Luminex Bio-plex 200 system (Bio-Rad Corp.) for quantitative analysis.

[2] = test system: naïve C57/BL6 splenocytes co-cultured with immunogenic B16 tumor cells; assay: IFNγ ELISA, naïve splenocytes co-cultured with Myc-inhibited immunogenic B16 tumor cells; assay type: cell-based, mouse
Method: To further investigate the influence of tumor secreted apoE on immune cell function, immunogenic B16 tumor cells (B16 cells treated with Myc inhibitors (0.25 μM BET+0.25 μM JQ1 for 4 days) were irradiated at 60 Gray and co-cultured with naïve C57/BL6 splenocytes in the presence of either apoE mimetic COG133 at 0.3, 3 and 9 μM or anti-APOE blocking antibody at 1, 10 and 30 μg/ml concentrations. Prior work has shown the immunogenic effect of treating cancer cells with Myc inhibitors and irradiation. IFNγ production was quantified by ELISA at 48 h. Splenocytes produced high levels of IFNγ when co-cultured with Myc-inhibited immunogenic B16 cells as shown in FIGS. 3A-3C. Exposure of these cells to apoE mimetic COG133 repressed IFNγ production (6-fold reduction) (FIG. 3A), while the presence of Anti-APOE antibody enhanced IFNγ production (3-fold increase) (FIG. 3B). We also tested IFNγ production from vaccinated splenocytes following co-culture with treated and untreated B16 cells in the presence of COG 133. […] In addition to IFNγ, we also quantified other cytokine/chemokines using ProcartaPlex multiplex immunoassay. […]
WT and apoE^−/− mice or WT and lrp8^−/− mice, were inoculated with either WT B16 or apoE^−/− B16 cells, with anti-CTLA4 antibody on day 0. […] Readings were measured at 450 nm using the EnSpire 2300 Multilabel plate reader (Perkin Elmer, Waltham, Massachusetts, US).

COG133: a fragment of apoE peptide, which competes with the apoE holoprotein for binding the LDL receptors and acts as an apoE mimetic
IL-13, IL-4, IL22, IL18, MCP-1, RANTES and Gro-α, WT vaccinated splenocytes ([1]; co-culture with Myc-inhibited B16 cells 48 hr, multiplex immunoassay (FIG. 18)): suppression
production of IFNγ, IL-6 and IL-18, naïve splenocytes ([1]; co-cultures with naïve splenocytes, 48 hr, multiplex ELISA (FIG. 17)): suppressive effect
production of IFNγ, IL-6 and IL-18, vaccinated splenocytes ([1]; co-cultures with vaccinated splenocytes, 48 hr, multiplex ELISA (FIG. 17)): diminished in vaccinated splenocytes is still observed
IFNγ, IL6, IL18 and RANTES (CCL5) production ([1]; splenocytes + Myc-inhibited B16 cells, multiplex immunoassay, dose dependent manner): suppressed
splenocyte production of IFNγ in presence of COG133 ([2]; naïve and vaccinated splenocytes + BET/JQ1 treated B16 cells (FIG. 3A)): markedly reduced
IFNγ production, reduction ([2]; naïve splenocytes + Myc-inhibited irradiated B16 cells, COG133 at 0.3, 3 and 9 μM, ELISA at 48 h): 6 fold
